Source: patent US20150031598A1, “NEMO BINDING DOMAIN FUSION PROTEINS” (Encode Bio, Inc., priority 2012, published 2015)
Ends that are not written are not given here.

Columns and labels:
NF-κB signaling = experiment: TNFα-mediated SEAP expression in pNiFty-SEAP transfected HEK293 cells (NF-κB reporter); type: cell-based; conditions: for block of TNFα-mediated SEAP expression (in words): pNiFty-SEAP transfected HEK293 cells
Text: HEK293 cells were transfected with the plasmid pNiFty-SEAP which encodes for a secreted alkaline phosphatase (SEAP) whose expression is under control of an ELAM-1 composite promoter containing five NF-κB sites. Treatment of cells with TNFα causes activation of the IkB kinase complex and, in turn, NF-κB, resulting in SEAP expression. We verified that pNiFty-SEAP transfected HEK293 cells treated with the NBD Peptide (FIG. 2; FIG. 3, Panel B) blocked the expression of TNFα-mediated SEAP expression in a concentration-dependent manner with an IC50 of ˜60 μM. […] Treatment of cells with circularized NBD-MCoTI-II generated in bacteria (data not shown) or linear NBD-MCoTI-II generated by automated synthesis (FIG. 2; FIG. 3 Panel A) blocked TNFα-mediated SEAP expression, but not WT MCoTI-II (FIG. 2).

HEK293 cells = type: cell-based; conditions: concentrations up to 1 μM
[1] = tested on: carrageenan-induced paw edema; experiment: Mouse carrageenan paw edema (CPE) model; type: in vivo; conditions: for reduction of swelling: 12 hours post-carrageenan
Description: Anti-inflammatory activity of linear NBD-MCoTI-II was tested at two doses (5 and 25 μg/kg) in the mouse CPE model. Mice were administered (i.p.) either NBD-MCoTI-II, dexamethasone (10 mg/kg) or saline one hour prior to inducing edema by carrageenan injection into the subplantar region of the left hind foot. Swelling was then measured by water displacement method at 2, 4, 6 and 12 hours post-carrageenan injection. […] At 12 hours, 5 and 25 μg/kg NBD MCoTI-II reduced swelling 30 and 50%, respectively (FIG. 5). […] (FIG. 5).

[2] = tested on: collagen-induced arthritis; experiment: Mouse collagen-induced arthritis (CIA) model, therapeutic mode; type: in vivo, male DBA/1J mice
Description: We next tested the efficacy of linear NBD-MCoTI-II in the mouse CIA model in therapeutic mode, a standard model for evaluating anti-arthritic activity. Mice were injected with collagen type II. CIA was induced in male DBA/1J mice by tail injection of Type II collagen (100 μg) mixed with complete Freund's adjuvant. On Day 21, a booster injection (i.p.) of collagen (100 μg)/incomplete Freund's adjuvant was administered. The severity of arthritis (arthritic index (AI)) was scored in each paw as follows: 0-no evidence of erythema and swelling, 1-erythema and mild swelling confined to the mid-foot (tarsals) or ankle joint, 2-erythema and mild swelling extending from the ankle to the mid-foot, 3-erythema and moderate swelling extending from the ankle to the metatarsal joints and 4-erythema and severe swelling encompass the ankle, foot and digits. AI scores were measured in each paw and summed (maximum score of 16 per mouse). After the AI score reached an average of 3.1 on Day 27, mice were separated into three treatment groups and administered (i.p.) daily: saline, 100 μg/kg NBD-MCoTI-II and 3 mg/kg dexamethasone for 14 days. AI scores, body weights, paw thickness and any signs of distress were monitored daily. […] The marked inhibition of arthritic disease progression by NBD-MCoTI-II persisted for the study duration. […] The effect lasted the study duration.
To further assess the efficacy of linear NBD-MCoTI-II we performed histopathology analysis of the studies on the joints of CIA mice treated with saline and NBD-MCoTI-II (100 μg/kg).
To compare the efficacy of NBD-MCoTI-II to existing anti-arthritic drugs we calculated a composite histopathology score for the CIA mice from the individual scores of inflammation, pannus, cartilage damage and bone resorption by adding them. Shown in FIG. 9 is a comparison of the composite histopathology scores for NBD-MCoTI-II (100 μg/kg) to published values for the existing anti-arthritic drugs Enbrel™ (15 mg/kg), Orencia™ (5 mg/kg), Xeljanz™ (10 mg/kg) and INCB028050 (15/mg). Data are presented as a percent of the composite histopathology scores for CIA mice treated with saline. […] J Immunol 184:5298-307, the contents of each of which are herein incorporated by reference in their entireties). […] Thus, linear NBD-MCoTI-II prevented joint damage while the other anti-arthritic drugs were only capable of reducing joint damage.
Splenomegaly is associated with arthritis and has been observed in the mouse CIA model [(see, e.g., Foell J L et al., (2004) Engagement of the CD137 (4-1BB) costimulatory molecule inhibits and reverses the autoimmune process in collagen-induced arthritis and establishes lasting disease resistance. Immunology 113:89-98; and Liu Y et al., (2011) Therapeutic effects of TACI-Ig on collagen-induced arthritis by regulating T and B lymphocytes function in DBA/1 mice. Eur J Pharmacol 654:304-14); the contents of each of which are herein incorporated by reference in their entirities)].
Mouse body weights were unchanged relative to saline controls.

[3] = target: NEMO (nuclear factor kB essential modulator) (UniProt Q9Y6K9 1-419); experiment: cell-based or functional assay
Chain of NEMO (nuclear factor kB essential modulator) (UniProt Q9Y6K9 1-419) (Q9Y6K9 whole entry): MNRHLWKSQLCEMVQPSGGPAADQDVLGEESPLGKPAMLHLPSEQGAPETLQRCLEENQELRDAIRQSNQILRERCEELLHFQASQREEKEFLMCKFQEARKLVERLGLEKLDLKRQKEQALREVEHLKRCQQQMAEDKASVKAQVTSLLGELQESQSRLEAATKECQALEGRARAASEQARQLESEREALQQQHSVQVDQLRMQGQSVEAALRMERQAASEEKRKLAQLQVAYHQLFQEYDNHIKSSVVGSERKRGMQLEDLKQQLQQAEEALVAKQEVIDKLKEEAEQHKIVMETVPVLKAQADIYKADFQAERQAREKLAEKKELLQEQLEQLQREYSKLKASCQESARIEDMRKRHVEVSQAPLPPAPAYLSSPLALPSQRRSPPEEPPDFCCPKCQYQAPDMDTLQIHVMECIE

[4] = target: NEMO (nuclear factor kB essential modulator) (UniProt Q9Y6K9); experiment: cell-based or functional assay
Chain of NEMO (nuclear factor kB essential modulator) (UniProt Q9Y6K9) (Q9Y6K9 whole entry): as above

Molecule: circularized NBD-MCoTI-II: circular, native-folded NBD-MCoTI-II generated in bacteria; sequence after processing SEQ ID NO:10 (cyclo(FTALDWSWLQTCPKILKKCRRDSDCPGACICRGNGYC); ends not checked; also: native-folded, disulfide pairing not given here)
- block of TNFα-mediated SEAP expression (in words) (NF-κB signaling): blocked

Molecule: FTALDWSWLQTCPKILKKCRRDSDCPGACICRGNGYC [linear NBD-MCoTI-II]
- potency relative to NBD peptide, inhibition of NF-κB signaling (NF-κB signaling; cell-based assay, versus NBD Peptide): 10^6 fold
- block of TNFα-mediated SEAP expression (in words) (NF-κB signaling): blocked
- overt cellular toxicity (HEK293 cells): no overt cellular toxicity
- in vivo potency relative to NBD Peptide ([1]; 5 μg/kg NBD-MCoTI-II similar to NBD Peptide 25 mg/kg (di Meglio 2005)): 5000 fold
- reduction of swelling ([1]; 5 μg/kg i.p.): 30%
- reduction of swelling ([1]; 25 μg/kg i.p.): 50%
- swelling (in words) ([1]; 5 and 25 μg/kg i.p., 4, 6 and 12 hours post-carrageenan): significantly reduced swelling
- joint histopathology scores (inflammation, pannus, cartilage damage, bone resorption) ([2]; 100 μg/kg): at or near zero
- progression of arthritis (arthritic index score) ([2]; 100 μg/kg i.p. daily, by Day 29, p<0.01, persisted for the study duration): halted the progression of arthritis
- increase in paw thickness ([2]; 100 μg/kg i.p. daily, p<0.01, lasted the study duration): blocked the increase in paw thickness
- composite histopathology score ([2]; 100 μg/kg, percent of saline-treated CIA mice): almost zero
- kidney, liver and intestine weights ([2]; CIA mice): within normal ranges
- laboratory blood analysis (blood chemistry, kidney function tests, ALT, AST, blood cell counts) ([2]; CIA mice): within normal ranges
- signs of toxicity or distress ([2]; CIA mice, 100 μg/kg i.p. daily for 14 days): no obvious signs of toxicity or distress
- spleen weight ([2]; CIA mice, saline 135±27 mg, p<0.01): 100 ± 17 mg
- efficacy relative to CP690550 (Xeljanz) and anti-TNF Ab control in ameliorating arthritic symptoms ([2]; comparison with Milici 2008): at least as effective
- mouse body weights ([2]; relative to saline controls): unchanged

Molecule: WT MCoTI-II: wild-type MCoTI-II (SEQ ID NO:3), cystine-knot microprotein, trypsin inhibitor subfamily (MCGSGSDGGVCPKILKKCRRDSDCPGACICRGNGY; disulfide (positions not given here); not fully specified; listed as Homo sapiens) [reference compound]
- block of TNFα-mediated SEAP expression (in words) (NF-κB signaling): not
- overt cellular toxicity (HEK293 cells): no overt cellular toxicity

B1: linear NBD-MCoTI-II generated by automated synthesis (designed binder)
chain: FTALDWSWLQTCPKILKKCRRDSDCPGACICRGNGYC
modifications: ends and bridges not checked; also: folded in glutathione buffers, disulfides not placed
- IC50 for blocking TNFα-mediated SEAP expression (NF-κB reporter, pNiFty-SEAP transfected HEK293 cells) [3]: 60 pM

Molecule: FTALDWSWLQT (peptide, part only; not given: cell penetrating peptide, part only, not fully specified) [NBD Peptide]
- IC50 for blocking TNFα-mediated SEAP expression (NF-κB reporter, pNiFty-SEAP transfected HEK293 cells) [4]: 60 µM
